Measured values from the supplement of paper PMC10883282.

Legend:
Assay in all cases: standardised AUC of viability dose-response curve (72 h) (fraction (0-1)); higher = less growth inhibition (more resistant)
[1] = tested on: RD
Summary of the method: (§1)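 Viability of sarcoma cell lines was read with ATPLite after 72 h of triplicate treatment in 384-well plates with 2.5 µl of compound from a compound-plate series of 10 mM to 0.0002 mM. Viability was scaled 1 (full) to 0 (none) and fitted with a four-parameter log-logistic model for each drug and cell line. The reported standardised area under the dose-response curve in log-dose space comes from a modified drexplorer computeAUC, where 1 is no response and 0 is full response.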

[2] = tested on: KHOS-NP
Summary of the method: as §1

[3] = tested on: HT1080
Summary of the method: as §1

[4] = tested on: KHOS-240S
Summary of the method: as §1

[5] = tested on: VA-ES-BJ
Summary of the method: as §1

[6] = tested on: HS729
Summary of the method: as §1

[7] = tested on: A204
Summary of the method: as §1

[8] = tested on: RD-ES
Summary of the method: as §1

[9] = tested on: SK-ES-1
Summary of the method: as §1

[10] = tested on: SW872
Summary of the method: as §1

[11] = tested on: SW982
Summary of the method: as §1

[12] = tested on: SW684
Summary of the method: as §1

[13] = tested on: MES-SA
Summary of the method: as §1

[14] = tested on: SYO-1
Summary of the method: as §1

[15] = tested on: SK-LMS-1
Summary of the method: as §1

[16] = tested on: G401
Summary of the method: as §1

[17] = tested on: SW1353
Summary of the method: as §1

Structure (SMILES): COCc1c(-c2cc3cc(C)cc(OC)c3s2)c2c(N)ncnn2c1CN1CCNC(=O)C1 [ROGARATINIB]
- standardised AUC [1]: 0.958
- standardised AUC [2]: 0.987
- standardised AUC [3]: 0.999
- standardised AUC [4]: 0.854
- standardised AUC [5]: 0.962
- standardised AUC [6]: 0.776
- standardised AUC [7]: 0.755
- standardised AUC [8]: 0.934
- standardised AUC [9]: 0.907
- standardised AUC [10]: 0.943
- standardised AUC [11]: 0.93
- standardised AUC [12]: 0.974
- standardised AUC [13]: 0.85
- standardised AUC [14]: 0.751
- standardised AUC [15]: 0.952
- standardised AUC [16]: 0.807
- standardised AUC [17]: 0.851

Structure (SMILES): Nc1cc(C(F)(F)F)c(-c2cc(N3CCOCC3)nc(N3CCOCC3)n2)cn1 [BUPARLISIB]
- standardised AUC [1]: 0.785
- standardised AUC [2]: 0.887
- standardised AUC [3]: 0.862
- standardised AUC [4]: 0.829
- standardised AUC [5]: 0.762
- standardised AUC [6]: 0.815
- standardised AUC [7]: 0.754
- standardised AUC [8]: 0.769
- standardised AUC [9]: 0.742
- standardised AUC [10]: 0.809
- standardised AUC [11]: 0.79
- standardised AUC [12]: 0.823
- standardised AUC [13]: 0.753
- standardised AUC [14]: 0.791
- standardised AUC [15]: 0.75
- standardised AUC [16]: 0.823
- standardised AUC [17]: 0.85

Structure (SMILES): N#CC[C@H](C1CCCC1)n1cc(-c2ncnc3[nH]ccc23)cn1 [RUXOLITINIB]
- standardised AUC [1]: 0.992
- standardised AUC [2]: 0.977
- standardised AUC [3]: 0.994
- standardised AUC [4]: 0.944
- standardised AUC [5]: 0.973
- standardised AUC [6]: 0.951
- standardised AUC [7]: 0.951
- standardised AUC [8]: 0.989
- standardised AUC [9]: 0.981
- standardised AUC [10]: 0.945
- standardised AUC [11]: 0.936
- standardised AUC [12]: 0.948
- standardised AUC [13]: 0.944
- standardised AUC [14]: 0.978
- standardised AUC [15]: 0.987
- standardised AUC [16]: 0.97
- standardised AUC [17]: 0.982

Structure (SMILES): COc1cc2nccc(Oc3ccc(NC(=O)Nc4cc(C)on4)c(Cl)c3)c2cc1OC [TIVOZANIB]
- standardised AUC [1]: 0.985
- standardised AUC [2]: 0.983
- standardised AUC [3]: 0.995
- standardised AUC [4]: 0.954
- standardised AUC [5]: 0.995
- standardised AUC [6]: 0.971
- standardised AUC [7]: 0.658
- standardised AUC [8]: 0.974
- standardised AUC [9]: 0.971
- standardised AUC [10]: 0.982
- standardised AUC [11]: 0.974
- standardised AUC [12]: 0.985
- standardised AUC [13]: 0.931
- standardised AUC [14]: 0.807
- standardised AUC [15]: 0.956
- standardised AUC [16]: 0.933
- standardised AUC [17]: 0.97

Structure (SMILES): CC(C)NC(=O)C1CCC(n2c(NC(=O)c3ccc(F)cc3)nc3ccc(CN4CCC(C(C)(C)O)CC4)cc32)CC1 (centres undefined) [BELIZATINIB]
- standardised AUC [1]: 0.788
- standardised AUC [2]: 0.973
- standardised AUC [3]: 0.952
- standardised AUC [4]: 0.844
- standardised AUC [5]: 0.835
- standardised AUC [6]: 0.838
- standardised AUC [7]: 0.922
- standardised AUC [8]: 0.791
- standardised AUC [9]: 0.749
- standardised AUC [10]: 0.82
- standardised AUC [11]: 0.762
- standardised AUC [12]: 0.925
- standardised AUC [13]: 0.901
- standardised AUC [14]: 0.827
- standardised AUC [15]: 0.926
- standardised AUC [16]: 0.829
- standardised AUC [17]: 0.897

Structure (SMILES): C[C@@H](c1ccc2nccn2c1)n1nnc2ncc(-c3cnn(C)c3)nc21 [VOLITINIB]
- standardised AUC [1]: 0.988
- standardised AUC [2]: 0.981
- standardised AUC [3]: 0.982
- standardised AUC [4]: 1
- standardised AUC [5]: 0.883
- standardised AUC [6]: 0.998
- standardised AUC [7]: 0.974
- standardised AUC [8]: 0.993
- standardised AUC [9]: 0.996
- standardised AUC [10]: 0.992
- standardised AUC [11]: 0.993
- standardised AUC [12]: 0.986
- standardised AUC [13]: 0.994
- standardised AUC [14]: 0.998
- standardised AUC [15]: 0.725
- standardised AUC [16]: 0.992
- standardised AUC [17]: 0.991

Structure (SMILES): Cc1cc(Nc2ncnc3ccc(NC4=NC(C)(C)CO4)cc23)ccc1Oc1ccn2ncnc2c1 [TUCATINIB]
- standardised AUC [1]: 1
- standardised AUC [2]: 0.989
- standardised AUC [3]: 0.988
- standardised AUC [4]: 0.983
- standardised AUC [5]: 0.951
- standardised AUC [6]: 0.928
- standardised AUC [7]: 0.966
- standardised AUC [8]: 0.978
- standardised AUC [9]: 0.974
- standardised AUC [10]: 0.981
- standardised AUC [11]: 0.984
- standardised AUC [12]: 0.976
- standardised AUC [13]: 0.946
- standardised AUC [14]: 0.97
- standardised AUC [15]: 0.985
- standardised AUC [16]: 0.979
- standardised AUC [17]: 0.915
